The values below come from BindingDB's records for doi:10.1016/j.bmcl.2017.08.049 (Renmin Hospital of Wuhan University, 2018).

This assay can be described thus: Inhibition of HIV1 3B gp41-induced cell-cell fusion between viral protein expressing human H9 cells and MT-2 target cells assessed as number of syncytia formation treated for 2 hrs measured after 6 hrs.

SMILES strings stand for the structures.

A word on the IC50: it is the concentration that gives 50% inhibition. On to `Cc1cc2c(c(O)c1-c1c(C)cc3c(c1O)/C(=C/NC(C)C(=O)NC(C)C(=O)O)C(=O)C(O)=C3C(C)C)/C(=C/NC(C)C(=O)NC(C)C(=O)O)C(=O)C(O)=C2C(C)C` (configuration not stated), for which the IC50 worked out at 7.14 µM.
For `Cc1cc2c(c(O)c1-c1c(C)cc3c(c1O)/C(=C/NC(C)S(=O)(=O)O)C(=O)C(O)=C3C(C)C)/C(=C/NC(C)S(=O)(=O)O)C(=O)C(O)=C2C(C)C` (configuration not stated) the value was 6.67 µM.
